In publication PMC5471438, “Linaclotide activates guanylate cyclase‐C/cGMP/protein kinase‐II‐dependent trafficking of CFTR in the intestine” (Physiological Reports, 2017):
“Also recorded” adds a separate entry of the source. Where no end group is shown, it is not given here.

What was measured:
CFTR [1] = assay: Surface biotinylation of CFTR in cGKII knockdown C2BBe cells; format: cell-based, human; conditions: dibutyryl cAMP 1 mmol/L, 30 min, vs PBS
[2] = system: rat proximal colonic mucosa; assay: Transepithelial short circuit current (Isc) across rat proximal colonic mucosa, Ussing chamber; set-up: species or system rat (Sprague–Dawley)
CFTR [3] = assay: Surface biotinylation of CFTR in T84 cells; format: cell-based, human; conditions: linaclotide 3.27 μmol/L 30 min
CFTR [4] = assay: Surface biotinylation of CFTR in C2BBe cells; format: cell-based, human; conditions: linaclotide 3.27 μmol/L 30 min
[5] = system: rat proximal colonic mucosa; set-up: method as in 2 sources, one per row (each row's own in cited_ref): ref Tchernychev et al. 2015 ||| ref Vaandrager et al. 1997; conditions: rat proximal colon; ref Vaandrager et al. 1997; cited from earlier work
[6] = system: PKGII-deficient mice intestinal tissue; set-up: method as in Vaandrager et al. 2000; conditions: normal and PKGII knockout mice; ref Vaandrager et al. 2000; cited from earlier work
human colonic mucosa = assay: Transepithelial short circuit current (Isc) across human ascending colonic mucosa, Ussing chamber; conditions: human ascending colon, bumetanide 100 μmol/L basolateral, linaclotide 30 nmol/L and 1000 nmol/L; mean ± SEM (n = 6)
cGKII = cGKII knockdown in C2BBe cells, Western blot; format: cell-based, human; conditions: lentiviral cGKII shRNA
human intestine = system: human intestine; set-up: method as in Kuhn et al. 1994; conditions: segments of human intestine including ascending colon; ref Kuhn et al. 1994; cited from earlier work
T84 cells = conditions: ref Forte et al. 1993; cited from earlier work
rat colonic mucosa = conditions: apical and basolateral membrane, ref Silos‐Santiago et al. 2013, Tchernychev et al. 2015; cited from earlier work
From the text: (§1) While the increase in intracellular cGMP following ligand activation of GC‐C is well established, the efflux of cGMP from enterocytes is not well studied.

Caco‐2 cell line = conditions: human colonic Caco‐2 cell line; ref Castro et al. 2013; Silos‐Santiago et al. 2013; cited from earlier work
From the text: as §1

mouse colonic mucosa = conditions: apical and basolateral membrane, ref Silos‐Santiago et al. 2013, Tchernychev et al. 2015; cited from earlier work
From the text: as §1

[7] = H7 50 μmol/L pretreatment 30 min
[8] = H8 70 μmol/L pretreatment 30 min

CCCC(=O)Nc1ncnc2c1ncn2[C@@H]1O[C@@H]2COP(=O)(O)O[C@H]2[C@H]1OC(=O)CCC [Dibutyryl cAMP]
surface CFTR in cGKII‐KD cells after cAMP analog (CFTR [1]): increased apical surface CFTR
surface CFTR in cGKII‐KD cells after cAMP analog (CFTR [1]; listed as dibuturyl cAMP): able to recruit CFTR to the membrane

O=C(CNc1ccc2ccccc2c1)N/N=C/c1cc(Br)c(O)c(Br)c1O [GlyH‐101]
inhibition of linaclotide‐evoked Isc by CFTR inhibitor ([2]; GlyH‐101 0.1 mmol/L apical, 20 min after linaclotide 6 nmol/L or 100 nmol/L, mean ± SEM (n = 4)): significantly attenuated the linaclotide‐evoked Isc
inhibition of linaclotide‐evoked Isc by CFTR inhibitor, low linaclotide ([2]; GlyH‐101 0.1 mmol/L, linaclotide 6 nmol/L): more profound when tissues were stimulated with lower concentrations of linaclotide; also recorded: significantly inhibited Isc induced by low concentration of linaclotide
inhibition of linaclotide‐evoked Isc by CFTR inhibitor, high linaclotide ([2]; GlyH‐101 0.1 mmol/L, linaclotide 100 nmol/L): less profound

CC1CNCCN1S(=O)(=O)c1cccc2cnccc12 (centres unmarked) [H7]
effect of PKA inhibitor on linaclotide‐induced apical CFTR traffic (CFTR [3]; [7]): reduced but did not abrogate linaclotide‐induced apical CFTR traffic; also recorded: reduce linaclotide‐induced apical trafficking of CFTR; also recorded: partially abrogated linaclotide‐stimulated traffic
effect of PKA inhibitor on linaclotide‐induced apical CFTR traffic (CFTR [4]; [7]): reduced but did not abrogate linaclotide‐induced apical CFTR traffic; also recorded: reduce linaclotide‐induced apical trafficking of CFTR; also recorded: partially abrogated linaclotide‐stimulated traffic

CNCCNS(=O)(=O)c1cccc2cnccc12.Cl.Cl [H8]
effect of PKGII inhibitor on NKH477‐evoked Isc ([2]; rat proximal colon, H8 100 μmol/L 30 min preincubation, NKH477 20 μmol/L basolateral, mean ± SEM (n = 5)): no effect on NKH477‐evoked Isc; also recorded: no effect on PKA‐mediated short circuit current induced by NKH477
effect of PKGII inhibitor on linaclotide‐induced Isc ([2]; rat proximal colon, H8 100 μmol/L 30 min preincubation, linaclotide 100 nmol/L apical, mean ± SEM (n = 5)): significantly decreased linaclotide‐induced Isc compared to vehicle‐treated tissues; also recorded: significant, it was not complete
effect of PKG inhibitor on linaclotide‐induced apical CFTR traffic (CFTR [3]; [8]): reduced linaclotide‐induced apical CFTR traffic more potently compared to the PKA inhibitor H7; also recorded: reduce linaclotide‐induced apical trafficking of CFTR
inhibition of GC‐C‐mediated transepithelial ion current by PKGII antagonists [5]: significant but incomplete inhibition
effect of PKG inhibitor on linaclotide‐induced apical CFTR traffic (CFTR [4]; [8]): reduced linaclotide‐induced apical CFTR traffic more potently compared to the PKA inhibitor H7; also recorded: reduce linaclotide‐induced apical trafficking of CFTR

C=C[C@@]1(C)CC(=O)[C@]2(O)[C@@]3(C)[C@@H](O)CCC(C)(C)[C@@H]3[C@H](OC(=O)CCN(C)C)[C@H](OC(C)=O)[C@@]2(C)O1.Cl [NKH477]
NKH477-induced transepithelial ion current ([2]; rat proximal colon, NKH477 20 μmol/L basolateral, mean ± SEM (n = 5)): robust transepithelial ion current

Nc1nc2c(nc(Sc3ccc(Cl)cc3)n2[C@@H]2O[C@@H]3CO[P@@](=O)(S)O[C@H]3[C@H]2O)c(=O)[nH]1 [Rp‐8‐pCPT‐cGMPS]
inhibition of GC‐C‐mediated transepithelial ion current by PKGII antagonists [5]: significant but incomplete inhibition

Nc1cc(-c2ccncc2)c[nH]c1=O [amrinone]
transepithelial ion current by PDE3 inhibitor [6]: induced transepithelial ion current in tissues from normal and PKGII knockout mice

CCCCNc1cc(C(=O)O)cc(S(N)(=O)=O)c1Oc1ccccc1 [bumetanide]
effect of NKCC1 inhibitor on linaclotide‐evoked Isc (human colonic mucosa): significantly attenuated linaclotide‐evoked Isc; also recorded: inhibits GC‐C mediated short circuit current across human colonic mucosa

cGKII shRNA: cGKII‐targeting shRNA (5′‐GGGCCTTAATAACCATTTAGT‐3′), lentiviral pLKO.1 (expressed from pLKO.1 lentiviral vector)
downregulation of cGKII (cGKII): approximately 50 ± 3%

guanylin (PGTCEICAYAACTGC; ends and bridges not checked; cysteine pairing not given here; UniProt Q02747 101-115, looked up) [natural hormone, GC‐C agonist]
electrogenic Cl− secretion (human intestine): increase electrogenic Cl^− secretion
cGMP production via GC‐C activation (T84 cells): increase production of cGMP

uroguanylin (NDDCELCVNVACTGCL; ends and bridges not checked; cysteine pairing not given here; UniProt Q16661 97-112, looked up) [natural hormone, GC‐C agonist]
cGMP efflux (rat colonic mucosa): induce cGMP efflux
cGMP efflux (Caco‐2 cell line): induce cGMP efflux
cGMP efflux (mouse colonic mucosa): induce cGMP efflux
cGMP production via GC‐C activation (T84 cells): increase production of cGMP
